Legend:
[1] = The drug is tested on Bacteroides fragilis strain: ATCC43859 for biotransformation. The drug concentrations were measured before and after a 12-h incubation by liquid-chromatography-coupled mass spectrometry (LC–MS); details: 2 µM
[2] = bifidobacterium adolescentis, 12 h, 2 µM
Description: The drug is tested on Bifidobacterium adolescentis strain: ATCC 15703 for biotransformation. The drug concentrations were measured before and after a 12-h incubation by liquid-chromatography-coupled mass spectrometry (LC–MS)

[3] = The drug is tested on Subdoligranulum variabile strain: DSM15176 for biotransformation. The drug concentrations were measured before and after a 12-h incubation by liquid-chromatography-coupled mass spectrometry (LC–MS); details: 2 µM
[4] = The drug is tested on Odoribacter splanchnicus strain: fecal isolate for biotransformation. The drug concentrations were measured before and after a 12-h incubation by liquid-chromatography-coupled mass spectrometry (LC–MS); details: 2 µM
[5] = The drug is tested on Eubacterium ventriosum strain: ATCC27560 for biotransformation. The drug concentrations were measured before and after a 12-h incubation by liquid-chromatography-coupled mass spectrometry (LC–MS); format: ADME; set-up: dose 2 uM, timepoint 0 vs 12 hours; details: 2 µM
[6] = The drug is tested on Eubacterium hallii strain: DSM3353 for biotransformation. The drug concentrations were measured before and after a 12-h incubation by liquid-chromatography-coupled mass spectrometry (LC–MS); details: anaerobutyricum hallii, 2 µM
[7] = The drug is tested on Clostridium sp. strain: fecal isolate for biotransformation. The drug concentrations were measured before and after a 12-h incubation by liquid-chromatography-coupled mass spectrometry (LC–MS); details: 2 µM
[8] = roseburia intestinalis, 12 h, 2 µM
Description: The drug is tested on Roseburia intestinalis strain: L1-82 for biotransformation. The drug concentrations were measured before and after a 12-h incubation by liquid-chromatography-coupled mass spectrometry (LC–MS)

[9] = limosilactobacillus reuteri cf48-3a, 12 h, 2 µM
Description: The drug is tested on Lactobacillus reuteri CF48-3A strain: BEI HM-102 for biotransformation. The drug concentrations were measured before and after a 12-h incubation by liquid-chromatography-coupled mass spectrometry (LC–MS)

[10] = The drug is tested on Bifidobacterium breve strain: DSM20213 for biotransformation. The drug concentrations were measured before and after a 12-h incubation by liquid-chromatography-coupled mass spectrometry (LC–MS); details: 2 µM
[11] = The drug is tested on Bacteroides coprophilus strain: DSM18228 for biotransformation. The drug concentrations were measured before and after a 12-h incubation by liquid-chromatography-coupled mass spectrometry (LC–MS); details: 2 µM
[12] = The drug is tested on Escherichia coli strain: BW25113 for biotransformation. The drug concentrations were measured before and after a 12-h incubation by liquid-chromatography-coupled mass spectrometry (LC–MS); details: 2 µM
[13] = The drug is tested on Clostridium sporogenes strain: ATCC15579 for biotransformation. The drug concentrations were measured before and after a 12-h incubation by liquid-chromatography-coupled mass spectrometry (LC–MS); details: 2 µM
[14] = The drug is tested on Bacteroides uniformis strain: ATCC8492 for biotransformation. The drug concentrations were measured before and after a 12-h incubation by liquid-chromatography-coupled mass spectrometry (LC–MS); details: 2 µM
[15] = The drug is tested on Enterococcus faecalis strain: V583 for biotransformation. The drug concentrations were measured before and after a 12-h incubation by liquid-chromatography-coupled mass spectrometry (LC–MS); details: 2 µM
[16] = akkermansia muciniphila, 12 h, 2 µM
Description: The drug is tested on Akkermansia muciniphila strain: ATCC BAA-835 for biotransformation. The drug concentrations were measured before and after a 12-h incubation by liquid-chromatography-coupled mass spectrometry (LC–MS)

[17] = The drug is tested on Blautia hansenii strain: DSM20583 for biotransformation. The drug concentrations were measured before and after a 12-h incubation by liquid-chromatography-coupled mass spectrometry (LC–MS); details: 2 µM
[18] = The drug is tested on Bacteroides ovatus strain: ATCC8483 for biotransformation. The drug concentrations were measured before and after a 12-h incubation by liquid-chromatography-coupled mass spectrometry (LC–MS); details: 2 µM
[19] = bacteroides fragilis, 12 h, 2 µM
Description: The drug is tested on Bacteroides fragilis strain: 3397 (T10) for biotransformation. The drug concentrations were measured before and after a 12-h incubation by liquid-chromatography-coupled mass spectrometry (LC–MS)

[20] = segatella copri, 12 h, 2 µM
Description: The drug is tested on Prevotella copri strain: DSM18205 for biotransformation. The drug concentrations were measured before and after a 12-h incubation by liquid-chromatography-coupled mass spectrometry (LC–MS)

## COC1=C(OC)C(=O)C(CCCCCCCCCCO)=C(C)C1=O [IDEBENONE]
[1]
  Bacterial Biotransformation: Compound metabolized
[2]
  Bacterial Biotransformation: Compound NOT metabolized
[3]
  Bacterial Biotransformation: Compound metabolized
[4]
  Bacterial Biotransformation: Compound metabolized
[5]
  Bacterial Biotransformation: Compound NOT metabolized
[6]
  Bacterial Biotransformation: Compound metabolized
[7]
  Bacterial Biotransformation: Compound NOT metabolized
[8]
  Bacterial Biotransformation: Compound NOT metabolized
[9]
  Bacterial Biotransformation: Compound NOT metabolized
[10]
  Bacterial Biotransformation: Compound NOT metabolized
[11]
  Bacterial Biotransformation: Compound NOT metabolized
[12]
  Bacterial Biotransformation: Compound NOT metabolized
[13]
  Bacterial Biotransformation: Compound metabolized
[14]
  Bacterial Biotransformation: Compound metabolized
[15]
  Bacterial Biotransformation: Compound NOT metabolized
[16]
  Bacterial Biotransformation: Compound NOT metabolized
[17]
  Bacterial Biotransformation: Compound NOT metabolized
[18]
  Bacterial Biotransformation: Compound NOT metabolized
[19]
  Bacterial Biotransformation: Compound metabolized
[20]
  Bacterial Biotransformation: Compound NOT metabolized

## COC(=O)C1=C(C)NC(C)=C(C(=O)OC(C)C)C1c1cccc2nonc12 (stereo not drawn) [ISRADIPINE]
[1]
  Bacterial Biotransformation: Compound NOT metabolized
[2]
  Bacterial Biotransformation: Compound NOT metabolized
[3]
  Bacterial Biotransformation: Compound NOT metabolized
[4]
  Bacterial Biotransformation: Compound NOT metabolized
[5]
  Bacterial Biotransformation: Compound NOT metabolized
[6]
  Bacterial Biotransformation: Compound NOT metabolized
[7]
  Bacterial Biotransformation: Compound NOT metabolized
[8]
  Bacterial Biotransformation: Compound NOT metabolized
[9]
  Bacterial Biotransformation: Compound NOT metabolized
[10]
  Bacterial Biotransformation: Compound NOT metabolized
[11]
  Bacterial Biotransformation: Compound NOT metabolized
[12]
  Bacterial Biotransformation: Compound NOT metabolized
[13]
  Bacterial Biotransformation: Compound NOT metabolized
[14]
  Bacterial Biotransformation: Compound NOT metabolized
[15]
  Bacterial Biotransformation: Compound NOT metabolized
[16]
  Bacterial Biotransformation: Compound NOT metabolized
[17]
  Bacterial Biotransformation: Compound NOT metabolized
[18]
  Bacterial Biotransformation: Compound NOT metabolized
[19]
  Bacterial Biotransformation: Compound NOT metabolized
[20]
  Bacterial Biotransformation: Compound NOT metabolized

## O=c1[nH]c2ccccc2n1CCCN1CCC(n2c(=O)[nH]c3cc(Cl)ccc32)CC1 [DOMPERIDONE]
[1]
  Bacterial Biotransformation: Compound NOT metabolized
[2]
  Bacterial Biotransformation: Compound NOT metabolized
[3]
  Bacterial Biotransformation: Compound NOT metabolized
[4]
  Bacterial Biotransformation: Compound NOT metabolized
[5]
  Bacterial Biotransformation: Compound NOT metabolized
[6]
  Bacterial Biotransformation: Compound NOT metabolized
[7]
  Bacterial Biotransformation: Compound NOT metabolized
[8]
  Bacterial Biotransformation: Compound NOT metabolized
[9]
  Bacterial Biotransformation: Compound NOT metabolized
[10]
  Bacterial Biotransformation: Compound NOT metabolized
[11]
  Bacterial Biotransformation: Compound NOT metabolized
[12]
  Bacterial Biotransformation: Compound NOT metabolized
[13]
  Bacterial Biotransformation: Compound NOT metabolized
[14]
  Bacterial Biotransformation: Compound NOT metabolized
[15]
  Bacterial Biotransformation: Compound NOT metabolized
[16]
  Bacterial Biotransformation: Compound NOT metabolized
[17]
  Bacterial Biotransformation: Compound NOT metabolized
[18]
  Bacterial Biotransformation: Compound NOT metabolized
[19]
  Bacterial Biotransformation: Compound NOT metabolized
[20]
  Bacterial Biotransformation: Compound NOT metabolized

## CN1CCN(C2=Nc3ccccc3Oc3ccc(Cl)cc32)CC1.O=C(O)CCC(=O)O [LOXAPINE SUCCINATE]
[1]
  Bacterial Biotransformation: Compound NOT metabolized
[2]
  Bacterial Biotransformation: Compound NOT metabolized
[3]
  Bacterial Biotransformation: Compound NOT metabolized
[4]
  Bacterial Biotransformation: Compound NOT metabolized
[5]
  Bacterial Biotransformation: Compound NOT metabolized
[6]
  Bacterial Biotransformation: Compound NOT metabolized
[7]
  Bacterial Biotransformation: Compound NOT metabolized
[8]
  Bacterial Biotransformation: Compound NOT metabolized
[9]
  Bacterial Biotransformation: Compound NOT metabolized
[10]
  Bacterial Biotransformation: Compound NOT metabolized
[11]
  Bacterial Biotransformation: Compound NOT metabolized
[12]
  Bacterial Biotransformation: Compound NOT metabolized
[13]
  Bacterial Biotransformation: Compound NOT metabolized
[14]
  Bacterial Biotransformation: Compound NOT metabolized
[15]
  Bacterial Biotransformation: Compound NOT metabolized
[16]
  Bacterial Biotransformation: Compound NOT metabolized
[17]
  Bacterial Biotransformation: Compound NOT metabolized
[18]
  Bacterial Biotransformation: Compound NOT metabolized
[19]
  Bacterial Biotransformation: Compound NOT metabolized
[20]
  Bacterial Biotransformation: Compound NOT metabolized

## C=CCN1CC[C@]23c4c5ccc(O)c4O[C@H]2C(=O)CC[C@@]3(O)[C@H]1C5 [NALOXONE]
[1]
  Bacterial Biotransformation: Compound metabolized
[2]
  Bacterial Biotransformation: Compound metabolized
[3]
  Bacterial Biotransformation: Compound NOT metabolized
[4]
  Bacterial Biotransformation: Compound NOT metabolized
[5]
  Bacterial Biotransformation: Compound NOT metabolized
[6]
  Bacterial Biotransformation: Compound NOT metabolized
[7]
  Bacterial Biotransformation: Compound metabolized
[8]
  Bacterial Biotransformation: Compound metabolized
[9]
  Bacterial Biotransformation: Compound metabolized
[10]
  Bacterial Biotransformation: Compound NOT metabolized
[11]
  Bacterial Biotransformation: Compound metabolized
[12]
  Bacterial Biotransformation: Compound NOT metabolized
[13]
  Bacterial Biotransformation: Compound metabolized
[14]
  Bacterial Biotransformation: Compound metabolized
[16]
  Bacterial Biotransformation: Compound metabolized
[17]
  Bacterial Biotransformation: Compound metabolized
[18]
  Bacterial Biotransformation: Compound metabolized
[19]
  Bacterial Biotransformation: Compound metabolized
[20]
  Bacterial Biotransformation: Compound metabolized

## Cc1cc2c(cc1S(N)(=O)=O)S(=O)(=O)CCC2
[1]
  Bacterial Biotransformation: Compound NOT metabolized
[2]
  Bacterial Biotransformation: Compound NOT metabolized
[3]
  Bacterial Biotransformation: Compound NOT metabolized
[4]
  Bacterial Biotransformation: Compound NOT metabolized
[5]
  Bacterial Biotransformation: Compound NOT metabolized
[6]
  Bacterial Biotransformation: Compound NOT metabolized
[7]
  Bacterial Biotransformation: Compound NOT metabolized
[8]
  Bacterial Biotransformation: Compound NOT metabolized
[9]
  Bacterial Biotransformation: Compound NOT metabolized
[10]
  Bacterial Biotransformation: Compound NOT metabolized
[11]
  Bacterial Biotransformation: Compound NOT metabolized
[12]
  Bacterial Biotransformation: Compound NOT metabolized
[13]
  Bacterial Biotransformation: Compound NOT metabolized
[14]
  Bacterial Biotransformation: Compound NOT metabolized
[16]
  Bacterial Biotransformation: Compound NOT metabolized
[17]
  Bacterial Biotransformation: Compound NOT metabolized
[18]
  Bacterial Biotransformation: Compound NOT metabolized
[19]
  Bacterial Biotransformation: Compound NOT metabolized
[20]
  Bacterial Biotransformation: Compound NOT metabolized

From ChEMBL document CHEMBL5303573, “Mapping human microbiome drug metabolism by gut bacteria and their genes” (Nature, 2019)
